The record followed here is patent publication US20100233199A1, “MODULATORS OF HYPERSENSITIVITY REACTIONS” (priority 2007, published 2010).

The nature of data set [1]: Peptide solubility observation. It counts as physicochemical.
The test system of data set [2] is RBL-2H3 cells. Put plainly: RBL-2H3 degranulation assay (β-hexosaminidase release). The settings on record: for degranulation upon IgE receptor crosslinking: peptide 0.01 mM pre-treatment overnight, IgE coating + DNP/albumin crosslinking, FIG. 7. It is filed as cell-based, rat. Here is the method:
(§1) Mast cell degranulation was measured using the β-hexosaminidase release method. RBL-2H3 cells were grown in F15 medium supplemented with 10% of fetal calf serum (FCS) and antibiotics. Cells were carefully detached from the culture flask with a cell scraper and plated at a concentration of 5×10^5 cells/well in a 96 well microtiter plate and incubated in the presence of MDD1 or SCR peptide overnight. RBL-2H3 cells were then incubated with 500 ng/ml anti-DNP IgE mb (SIGMA) for 2 hours at 37° C. After washing, cells were stimulated with 100 ng/ml DNP/albumin for 30 minutes. For non IgE specific stimulation 1 nM Ionomycin only was added to the cultures for 30 minutes. Supernatants were then collected and cell lysates were prepared using 0.1% Triton X-100. Lysate and supernatant samples (10 μl) were transferred into 96-well plates and 50 μl mM 1 mM p-nitrophenyl-N-acetyl-β-D-glucopyranoside in 50 mM citrate buffer was added to each well and incubated for 1 hour at 37° C. in the dark. The reaction was stopped by adding 100 μl 0.1M NaHCO3/0.1M Na2CO3 into each well and the absorbance measured at 405 nm. Percentage degranulation was calculated by the following formula: OD supernatant/(OD supernatant+OD lysate)×100.
as §1, with “MPX741 peptide” for “MDD1”, “MPX742” for “SCR”, “(100)” for “(10 μl)”, “μl” for “μl mM”, “formula:” for “formula: OD supernatant/(OD supernatant+OD lysate)×100.”
OD supernatant/(OD supernatant+OD lysate)×100.

In data set [3] the test system is OVA-sensitised mice. Put plainly: OVA-induced asthma model, lung resistance after β-methacholine. It is filed as in vivo, C57BL/6 mice. The settings on record: 6 hours prior to each OVA challenge, compared to control peptide. Here is the method:
(§2) C57BL/6 mice were sensitised with 10 ug ovalbumin antigen (OVA) in saline intraperitoneally seven times given on alternate days. 40 days after first sensitisation dose, mice were challenged with intranasal OVA (20 ul in each nostril of a solution of 5 mg/ml of OVA in saline). Mice received two additional challenges of intranasal OVA at days 3 and 6 after the first challenge with OVA. Control mice were sensitised with OVA, but challenged intranasally with saline. Groups of mice receiving parenteral MDD1 treatment were intravenously injected with 8 mg/Kg of MDD1 three times, 6 hours prior to each OVA challenge. Nebulised MDD1 or MDDscram (SCR) peptide was given 6 hours prior to each OVA challenge by nebulising 5 mice per cage with 8 ml of 1 mg/ml MDD1 or control peptide.
Functional lung studies and organ collection was performed one day after the final OVA challenge. Lung resistance was measured in anesthetized mice after increasing doses of β-methacholine. […] Lung resistance was measured by plethysmography, using an apparatus and software supplied by Buxco. Lung resistance values are expressed as an average of each group of mice for each methacholine dose. For each mouse, individual values were calculated by averaging collected data (every 5 seconds during 5 minutes) for each methacholine dose.

The subject of another data set is skin mast cells. It counts as in vivo, mice. The settings on record: for systemic effects of local (ear) treatment: mouse, in vivo. The procedure: Left ears were treated with DMSO and right ears with 0.2% MDD1 or 0.1% dexamethasone in DMSO twice daily for four days. Mice were then sensitised with anti DNP-20 ul IgE antibody administered to the ears by intradermal injection using an insulin syringe. Local mast cell activation was measured by dye recovery in response to FcεRI crosslink 24 hours post-injection: 100 μg DNP-albumin/1% Evans blue in PBS was injected intravenously and ear biopsies taken after 30 minutes were incubated at 80° C. in 1 ml formamide for 2 hours. The absorbance supernatant was measured at 620 nm.

Data set [4] concerns OVA-sensitised mice. Put plainly: OVA-induced asthma model, inflammatory response (eosinophils, BAL cells, cytokine expression, serum IgE). It counts as in vivo, C57BL/6 mice. The procedure: as §2
Blood smears were prepared and the percentage of eosinophils was calculated by morphological criteria after May-Grünwald Giemsa-staining. Bronchoalveolar lavage (BAL) was recovered by lavaging airways twice with 1 ml HANKS solution via the tracheal cannula while gently massaging the thorax. Lung lower left lobe was collected and homogenised. Cells were filtered through a cell strainer and cell suspensions prepared in staining medium (PBS with 1% FCS). BAL and lung samples were incubated with anti-CD11b, anti-CCR3, anti-CD4 and antiB220 mab markers for flow cytometric analysis using a FACScan equipped with CellQuest software.
Lung upper right lobe was collected and homogenised on ice. Total RNA was prepared using Trizol (GIBCO, Invitrogen). Purity of the RNA was determined by A260/A280. 5 μg RNA for each sample was reverse transcribed into cDNA using Omniscript RT kit (Qiagen). Cytokine specific predesigned TaqMan gene expression assay (Applied Biosystems) were used to measure cytokine relative gene expression following the manufacturer's instructions (Applied Biosystems). Each experimental sample was assayed in three replicates. β-actin specific primers were used as an internal standard. Negative controls with blank cDNA template were run with every assay to assess specificity. The cycling conditions were as follows: one cycle at 95° C. for 10 minutes, followed by 40 cycles of PCR amplification, each consisting of 95° C. for 15 seconds and 60° C. for 45 seconds. Sequence Detection Software (SDS v 1.2.2, Applied Biosystems) was used for analysis of the results. A threshold cycle (Ct) was determined for each sample. PCR assays showing non-specific products at the end point were excluded from further data analysis. Relative quantification using comparative Ct method was used for analysing results. The results were expressed as relative fold change over the values for non-allergic mice.
OVA-specific IgE detection: 96-well maxisorp plates were coated overnight at 4° C. with anti-mouse IgE. 2% skim milk was used for unspecific binding blockade. Prediluted serum samples were incubated overnight, plates were loaded with OVA-biotin for 1.5 hours and a colometric reaction was developed using ABTS following manufacture's instructions. For OVA-specific IgG, 96-well maxisorp microtiter plates were pretreated with 0.2% glutaraldehyde and were coated with 10 μg/ml of OVA in 10 mM carbonate buffer (pH 9.6) for 3 hours at 37° C. Wells were blocked with 2% BSA in 10 mM carbonate buffer (pH 9.6) overnight at 4° C. in a humidified chamber. Serum samples were incubated at 37° C. for 1 hour. Peroxidase-conjugated […] followed by ABTS was used to develop the colorimetric reaction. Optical density was read in a microplate reader using a 405 nm filter. Levels of IgE and IgG were expressed as OD units.

The test system of data set [5] is RBL-2H3 cells. The data set can be described thus: MDD1 uptake by RBL-2H3 cells (FACS, streptavidin-APC). It is filed as cell-based, rat. Conditions: biotinylated MDD1 0.001, 0.01 and 0.1 mM overnight; intracellular FACS staining with streptavidin APC; FIG. 6. Here is the method: RBL-2H3 cells were grown in F15 medium supplemented with 10% of fetal calf serum (FCS) and antibiotics. Cells were carefully detached from the culture flask with a cell scraper and plated at a concentration of 5×10^5 cells/well in a 96 well microtiter plate. Cells were incubated with various concentrations of biotinylated MDD1 (0.1, 0.01 and 0.001 mM) overnight. Biotinylated MDD1 uptake by live cells was detected using streptavidin-APC in single-cell suspensions previously treated with a combined cytofix/cytopenn fixation and penneabilization solution kit following manufacture's instructions (Becton Dickinson, BD). Cells were then analysed using a BD FACscan flow cytometer.

Take “Ac-PQDQGWNAEITLQMVQY-NH2 [MPX743, PQDQGWNAEITLQMVQY]”: the solubility entry in data set [1] is reported as “poorly soluble”.

In the case of “LEPPVKLKELHFSNMKTVD (listed as Homo sapiens) [MPX742]”, in the data set on RBL-2H3 cells [2] (MPX741, MPX742 0.01 mM pre-treatment, IgE coating + crosslinking, FIG. 11), the “degranulation following IgE receptor crosslink” value is reported as “significantly reduced degranulation”.

For the compound Ac-RALYDNVPECAEELAFRKGD-NH2 [MDD1], the “Lung resistance (RL) following increasing doses of β-methacholine” value is given as “reduced” in the data set on OVA-sensitised mice [3] (intravenously 8 mg/kg, FIG. 8A) and “reduced” with OVA-sensitised mice [3] (nebulised intranasal route 1 mg/ml, FIG. 8B). The “mast cell activation following IgE receptor crosslink, by dye extravasation” value with skin mast cells (0.2% MDD1 peptide/DMSO topically to ear, twice daily for four days, compared to contralateral ears treated with DMSO only, FIG. 10) was “reduced levels of activation”. Besides, the “systemic effects of local (ear) treatment” value in the data set with skin mast cells is reported as “minimal systemic effects”. Moreover, the “overall inflammatory response in the asthmatic reaction” value in the data set on OVA-sensitised mice [4] (OVA-sensitized mice, FIG. 9) is listed as “reduced”. Also, in the data set on OVA-sensitised mice [4] (allergic mice compared to control treated mice, FIG. 9A), the eosinophilia in blood entry was “decreased”. In the data set on OVA-sensitised mice [4] (allergic mice compared to control treated mice, FIG. 9B), the “cellularity in broncho-alveolar lavages” value is given as “decreased”. Besides, the “cytokine production in inflammatory foci (TNF expression)” value in the data set with OVA-sensitised mice [4] (allergic mice compared to control treated mice, FIG. 9C) is reported as “decreased”. The “levels of antigen-specific IgE in serum” value in the data set on OVA-sensitised mice [4] (allergic mice compared to control treated mice, FIG. 9D) is given as “decreased”. The “comparison with dexamethasone treatment in the inflammatory parameters tested” value with OVA-sensitised mice [4] (dexamethasone 2 mg/kg i.p., some of the parameters, FIG. 9) is listed as “outperformed dexamethasone treatment”. Further, the “MDD1 peptide uptake by live cells” value with RBL-2H3 cells [5] was “All cells were positive for MDD1 peptide and the levels were observed to increase with peptide concentration”. Moreover, the “mast cell activation after non-specific stimulation” value in the data set on RBL-2H3 cells [2] (non IgE specific stimulation (ionomycin), data not shown) is reported as “inhibit mast cell activation”. In addition, the “degranulation upon IgE receptor crosslinking” value with RBL-2H3 cells [2] was “inhibit degranulation”.

On to “EALPGEDCAFRKDANRLVEY (listed as Homo sapiens) [MDD1scram, control peptide, reference compound]”, for which the “degranulation upon IgE receptor crosslinking” value in the data set with RBL-2H3 cells [2] is on record as “only a minor inhibitory effect”.

As for `C[C@@H]1C[C@H]2[C@@H]3CCC4=CC(=O)C=C[C@]4(C)[C@@]3(F)[C@@H](O)C[C@]2(C)[C@@]1(O)C(=O)CO` [dexamethasone, reference compound], the “systemic effects of local (ear) treatment” value with skin mast cells is given as “systemic immunosuppresion”.
